pIC50, pKd: −log10 of the molar value.
Assays:
[1] = test system: T-cell; assay: CD25 cell surface staining on T-cells stimulated with anti-CD3 antibody alone (Biological Example 2); assay type: cell-based; details: primary human total T-cells, baseline = anti-CD3/anti-CD28 stimulated cells without inhibitor, read-out: CD25 staining, Anti-CD3 stimulation, fold change over baseline; for fold induction at 1 µM: 1 μM compound; for fold induction at 8 µM: 8 μM compound
[2] = target: T1, Cbl-b (Homo sapiens, UniProt Q13191); assay: Cbl-b activity assay (Cbl-b inhibition assay), TR-FRET of Cbl-b interaction with UbcH5B-Ub; assay type: biochemical; details: assay buffer with 100 mM NaCl, 60 nM Src kinase; read-out: Cbl-b activity IC50
T1 sequence (Q13191 36-427): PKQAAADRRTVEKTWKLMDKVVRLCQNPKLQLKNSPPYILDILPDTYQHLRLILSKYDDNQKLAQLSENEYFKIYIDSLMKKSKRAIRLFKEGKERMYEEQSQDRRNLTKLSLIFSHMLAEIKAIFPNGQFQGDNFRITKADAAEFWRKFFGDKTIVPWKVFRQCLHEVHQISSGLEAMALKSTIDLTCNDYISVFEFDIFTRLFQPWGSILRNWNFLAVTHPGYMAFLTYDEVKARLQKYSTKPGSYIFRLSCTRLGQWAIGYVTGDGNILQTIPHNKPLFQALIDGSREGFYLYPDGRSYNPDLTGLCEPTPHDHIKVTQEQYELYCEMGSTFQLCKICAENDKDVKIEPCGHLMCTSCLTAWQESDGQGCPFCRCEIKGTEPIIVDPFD
Outline: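 TR-FRET readout of Cbl-b binding to Bodipy-fluorescein N-terminally labeled Ub conjugated to UbcH5B C85K, measured with compound present. After compound incubation, 60 nM Src kinase with 1 mM ATP and 5 mM MgCl2 (final) was added for 1.5 h, then a further 1 h incubation; asterisked values used 50 mM NaCl buffer and 30 nM Src.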

[3] = target: T1, Cbl-b; assay: Cbl-b inhibition assay (Cbl-b activity assay, FRET, Biological Example 1; 100 mM NaCl, 60 nM Src kinase); assay type: biochemical; details: upper bound stated in text lists; read-out: IC50 values in the Cbl-b inhibition assay of Biological Example 1
Outline: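 Steps: Src kinase phosphorylates N-terminal biotinylated Avi-tagged Cbl-b; phosphorylated Cbl-b binds Bodipy-fluorescein ubiquitin-loaded UbcH5B; streptavidin-terbium on Cbl-b sits close to the fluorescein label, producing FRET. Inhibitors block UbcH5B-Ub binding.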

[4] = test system: T-cell; assay: IL-2 secretion from T-cells co-stimulated with anti-CD3 and anti-CD28 antibody (Biological Example 2); assay type: cell-based, human; details: Homo sapiens, T-cell, primary human total T-cells, baseline = anti-CD3/anti-CD28 stimulated cells without inhibitor, read-out: IL-2 secretion, Anti-CD3/Anti-CD28 stimulation, fold change over baseline; for fold induction at 0.3 µM: 0.3 μM compound; for fold induction at 1 µM: 1 μM compound; for fold induction at 4 µM: 4 μM compound
Outline: (§1)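 No assay protocol given; T-cells stimulated with anti-CD3 alone or anti-CD3 plus anti-CD28, with or without Cbl-b inhibitor. Activation read as IL-2 secretion or CD25 surface staining, expressed as fold over baseline from uninhibited cells […].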

[5] = test system: T-cell; assay: CD25 cell surface staining on T-cells co-stimulated with anti-CD3 and anti-CD28 antibody (Biological Example 2); assay type: cell-based, human; details: Homo sapiens, T-cell, primary human total T-cells, baseline = anti-CD3/anti-CD28 stimulated cells without inhibitor, read-out: CD25 staining, Anti-CD3/Anti-CD28 stimulation, fold change over baseline; for fold induction at 0.3 µM: 0.3 μM compound; for fold induction at 1 µM: 1 μM compound; for fold induction at 4 µM: 4 μM compound
Outline: as §1

[6] = test system: T-cell; assay: IL-2 secretion from T-cells stimulated with anti-CD3 antibody alone (Biological Example 2); assay type: cell-based; details: primary human total T-cells, read-out: IL-2 secretion, Anti-CD3 stimulation, fold change over baseline; for fold induction at 1 µM: 1 μM compound; for fold induction at 8 µM: 8 μM compound
[7] = target: Cbl-b (residues 36-427) (Homo sapiens, UniProt Q13191); assay: Cbl-b binding assay (SPR, Biacore T200); details: 20° C., 1:1 binding model
Chain of Cbl-b (residues 36-427) (Q13191 36-427): as above
Outline: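 Affinities derived from global 1:1 steady-state or kinetic fits of double-referenced, solvent-corrected SPR data, 20 °C, NeutrAvidin-capture chip. Compound series (top 100 or 50 μM, 8–10 points) injected 50 s, 90–180 s dissociation. Asterisked values used 50 mM instead of 100 mM NaCl and 30 nM Src kinase.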

Row | SMILES | fold induction at 1 µM [1] | fold induction at 8 µM [1] | pIC50 [2] | pIC50 [3] | fold induction at 0.3 µM [4] | fold induction at 1 µM [4] | fold induction at 4 µM [4] | fold induction at 0.3 µM [5] | fold induction at 1 µM [5] | fold induction at 4 µM [5] | fold induction at 1 µM [6] | fold induction at 8 µM [6] | pKd [7]
1 | C[C@H](Cc1nncn1C)c1cccc(N2Cc3c(cc([C@@H](C)N4CC[C@H](F)C4)cc3C(F)(F)F)C2=O)c1 [Compound 403, 6-((R)-1-((S)-3-fluoropyrrolidin-1-yl)ethyl)-2-(3-((R)-1-(4-methyl-4H-1,2,4-triazol-3-yl)propan-2-yl)phenyl)-4-(trifluoromethyl)isoindolin-1-one] | > 1 | > 1 | > 7.00 | ≥ 7.00 | 5 to 7.5 | > 7.5 | > 7.5 | 1.01 to 1.3 | 1.01 to 1.3 | 1.31 to 1.5 | 0.151 to 0.2 | > 0.201 | > 7.00
2 | C[C@H](Cc1nncn1C)c1cccc(N2Cc3c(cc(CN4CC(F)C4)cc3C(F)(F)F)C2=O)c1 [Compound 401, (R)-6-((3-fluoroazetidin-1-yl)methyl)-2-(3-(1-(4-methyl-4H-1,2,4-triazol-3-yl)propan-2-yl)phenyl)-4-(trifluoromethyl)isoindolin-1-one] | > 1 | > 1 | > 7.00 | ≥ 7.00 | 2.51 to 5 | > 7.5 | > 7.5 | 1.01 to 1.3 | 1.01 to 1.3 | 1.31 to 1.5 | 0.151 to 0.2 | > 0.201 | > 7.00
3 | CC(O)c1cc2c(c(C(F)(F)F)c1)CN(c1cccc([C@@](C)(F)C(F)(F)c3nncn3C)c1)C2=O (stereo partly drawn) [Compound 446, 6-(1-hydroxyethyl)-2-(3-((R)-1,1,2-trifluoro-1-(4-methyl-4H-1,2,4-triazol-3-yl)propan-2-yl)phenyl)-4-(trifluoromethyl)isoindolin-1-one] | 0.801 to 1 | > 1 | > 7.00 | ≥ 7.00 | 1.01 to 2.5 | 1.01 to 2.5 | 5 to 7.5 | 1.01 to 1.3 | 1.01 to 1.3 | 1.01 to 1.3 | 0.051 to 0.1 | > 0.201 | 6.52 to 7.00
4 | Cc1c[nH]nc1-c1cc2c(c(C(F)(F)F)c1)CN(c1cccc([C@H](C)Cc3nncn3C)c1)C2=O [Compound 377, 6-(4-methyl-1H-pyrazol-3-yl)-2-{3-[(2R)-1-(4-methyl-4H-1,2,4-triazol-3-yl)propan-2-yl]phenyl}-4-(trifluoromethyl)-2,3-dihydro-1H-isoindol-1-one] | 0.601 to 0.8 | 0.801 to 1 | > 7.00 | ≥ 7.00 | 1.01 to 2.5 | 5 to 7.5 | > 7.5 | 1.31 to 1.5 | 1.51 to 1.75 | > 1.76 | > 0.201 | > 0.201 | > 7.00
5 | C[C@@H](c1cccc(N2Cc3c(cccc3C(F)(F)F)C2=O)c1)C(F)(F)c1nncn1C [Compound 467a, (S)-2-(3-(1,1-difluoro-1-(4-methyl-4H-1,2,4-triazol-3-yl)propan-2-yl)phenyl)-4-(trifluoromethyl)isoindolin-1-one] | 0.601 to 0.8 | 0.801 to 1 | 6.52 to 7.00 | ≥ 6.52 | 1.01 to 2.5 | 1.01 to 2.5 | 2.51 to 5 | 1.01 to 1.3 | 1.01 to 1.3 | 1.01 to 1.3 | < 0.05 | 0.101 to 0.15 | 6.00 to 6.52
6 | Cc1conc1C[C@@H](C)c1cccc(N2Cc3c(cc(C(=O)N4CC[C@H](O)C4)cc3C(F)(F)F)C2=O)c1 [Compound 407, 6-((S)-3-Hydroxypyrrolidine-1-carbonyl)-2-(3-((R)-1-(4-methylisoxazol-3-yl)propan-2-yl)phenyl)-4-(trifluoromethyl)isoindolin-1-one] | > 1 | > 1 | > 7.00 | ≥ 7.00 | 2.51 to 5 | 5 to 7.5 | > 7.5 | 1.01 to 1.3 | 1.01 to 1.3 | 1.01 to 1.3 | 0.101 to 0.15 | > 0.201 | > 7.00
7 | C[C@H](Cc1nncn1C)c1cccc(N2Cc3c(cc(CN4CCC(F)(F)C4)cc3C(F)(F)F)C2=O)c1 [Compound 396, (R)-6-((3,3-difluoropyrrolidin-1-yl)methyl)-2-(3-(1-(4-methyl-4H-1,2,4-triazol-3-yl)propan-2-yl)phenyl)-4-(trifluoromethyl)isoindolin-1-one] | > 1 | > 1 | > 7.00 | ≥ 7.00 | 2.51 to 5 | 5 to 7.5 | > 7.5 | 1.01 to 1.3 | 1.01 to 1.3 | 1.31 to 1.5 | 0.151 to 0.2 | > 0.201 | > 7.00
8 | Cn1cnnc1CC1(c2cccc(N3Cc4c(cc(CN5CCC(F)(F)C5)cc4C(F)(F)F)C3=O)c2)COC1 [Compound 411, 6-((3,3-difluoropyrrolidin-1-yl)methyl)-2-(3-(3-((4-methyl-4H-1,2,4-triazol-3-yl)methyl)oxetan-3-yl)phenyl)-4-(trifluoromethyl)isoindolin-1-one] | > 1 | > 1 | > 7.00 | ≥ 7.00 | 2.51 to 5 | > 7.5 | > 7.5 | 1.01 to 1.3 | 1.01 to 1.3 | 1.01 to 1.3 | > 0.201 | > 0.201 | > 7.00
9 | C[C@H](Cc1nncn1C)c1cccc(N2Cc3c(cc(CN4C[C@@H](F)[C@@H](O)C4)cc3C(F)(F)F)C2=O)c1 [Compound 418] | > 1 | > 1 | > 7.00 | ≥ 7.00 | 2.51 to 5 | 5 to 7.5 | > 7.5 | 1.01 to 1.3 | 1.31 to 1.5 | 1.31 to 1.5 | 0.151 to 0.2 | > 0.201 | > 7.00
10 | CC(c1cc2c(c(C(F)(F)F)c1)CN(c1cccc([C@H](C)Cc3nncn3C)c1)C2=O)N1CC[C@H](O)C1 (stereo partly drawn) [Compound 416, 6-(1-((S)-3-hydroxypyrrolidin-1-yl)ethyl)-2-(3-((R)-1-(4-methyl-4H-1,2,4-triazol-3-yl)propan-2-yl)phenyl)-4-(trifluoromethyl)isoindolin-1-one] | > 1 | > 1 | > 7.00 | ≥ 7.00 | 2.51 to 5 | > 7.5 | > 7.5 | 1.31 to 1.5 | 1.31 to 1.5 | 1.51 to 1.75 | 0.151 to 0.2 | > 0.201 | > 7.00

From patent publication US20220324835A1 (Nurix Therapeutics, Inc., priority 2018, published 2022)
